What was measured:
Format in all cases: biochemical
[1] = target: T1, E coli. poly(A) polymerase (Escherichia coli, UniProt P0ABF1); assay: Poly(A) polymerase-based extension of C, G and U-terminated model short RNAs, Urea-PAGE; conditions: for addition of oligo nucleotide analogue to model short RNAs with different 3′ terminal bases: 1 mM, 37° C., 15 minutes
Description: In this example, 2-Amino-ATP, 2-Amino-6-Cl-purine-rTP and 2′-F-dATP have been tested for poly(A) polymerase-based extension to add the respective oligo nucleotide analogue sequences to the 3′ termini of model short RNAs with different terminal bases other than A, i.e. C, G and U-terminated model short RNAs as shown in Table 1. ATP was used as the positive control. The reaction cocktail for the poly(A) polymerase-based extension for each model short RNA was prepared as described in Table 2. The 10 μL of the reaction mixture was incubated at 37° C. for 15 minutes to allow the addition of 2-Amino-6-Cl-purine-rTP to the model short RNAs. The reacted RNA products were visualized using Urea-PAGE.

[2] = target: T1, E coli. poly(A) polymerase; assay: Poly(A) polymerase-based reaction with different nucleotide analogues and their combination on UnaG-120A mRNA, Fragment Analyzer; conditions: for addition to UnaG-120A mRNA by poly(A) polymerase: 1 mM total analogue, 37° C., 15 minutes; for appearance of the RNA product: UnaG-120A mRNA, Fragment Analyzer
Description: In this example, the ability of poly(A) polymerase-based reaction to add different nucleotide analogues to the 3′ termini of UnaG-120A mRNA as the oligo nucleotide analogue sequence has been tested. […] The 10 μL of the reaction mixture was incubated at 37° C. for 15 minutes. The reacted RNA products were visualized using Fragment Analyzer.

[3] = target: T1, E coli. poly(A) polymerase; assay: Poly(A) polymerase-based extension of model short RNA (A-terminated), Urea-PAGE; conditions: for addition of nucleotide analogue sequence to the 3′ termini of the model short RNA: 1 mM analogue, 15 minutes, model short RNA (A-terminated)
Description: The reaction cocktail was used in the subsequent studies as described in examples below.
ATP was used as the positive control. The reaction cocktail for the poly(A) polymerase-based extension for each of the nucleoside analogue triphosphates and ATP was prepared as described in Table 2. The 10 μL of the reaction cocktail was incubated at 37° C. for 15 minutes to allow the extension of the adenine nucleotides (A) or nucleotide analogues. The reacted RNA products were visualized using Urea-PAGE.
The experiment was further repeated for 2-Amino-6-Cl-purine-rTP addition by poly(A) polymerase-based extension with different incubation times, i.e. 5, 10, 15, 20 minutes respectively. Addition of ATP by poly(A) polymerase-based extension with 20-minute incubation time was used as the positive control. The reacted RNA products were visualized using Urea-PAGE.

[4] = target: T1, E coli. poly(A) polymerase; assay: One-pot 3′ extension of model short RNA, Urea-PAGE; conditions: 15 minutes analogue, then ATP added, 37° C.
Description: In this example, the reaction cocktail for the one-pot 3′ extension of model short RNA (as shown in Table 1) was prepared as described in Table 4. The reaction cocktail (without ATP) was incubated at 37° C. for 15 minutes to allow for 2-Amino-6-Cl-purine-rTP addition. After 15 minutes of reaction, 1 μL of 10 mM ATP (New England BioLabs®) was directly added into the reaction mixture, and further incubated for different durations of time at 37° C.

[5] = target: T1, E coli. poly(A) polymerase; assay: Poly(A) polymerase-based extension of model mRNA mixture, Fragment Analyzer; conditions: mixture of CLuc-53AGGCCCCU, EGFP-40A, UnaG-120A; 15-minute extension
Excerpt: In this example, three model mRNAs CLuc-53AGGCCCCU, EGFP-40A, and UnaG-120A as shown in Table 1 are mixed in an equal amount to create a model mRNA mixture. The same poly(A) polymerase-based extension as described in Example 5 was used to add 2-Amino-6-Cl-purine-rTP to the model RNA mixture. Fragment Analyzer (Agilent®) was used to measure the lengths of the model RNA mixture before and after the reaction.

T1 sequence (P0ABF1 11-465): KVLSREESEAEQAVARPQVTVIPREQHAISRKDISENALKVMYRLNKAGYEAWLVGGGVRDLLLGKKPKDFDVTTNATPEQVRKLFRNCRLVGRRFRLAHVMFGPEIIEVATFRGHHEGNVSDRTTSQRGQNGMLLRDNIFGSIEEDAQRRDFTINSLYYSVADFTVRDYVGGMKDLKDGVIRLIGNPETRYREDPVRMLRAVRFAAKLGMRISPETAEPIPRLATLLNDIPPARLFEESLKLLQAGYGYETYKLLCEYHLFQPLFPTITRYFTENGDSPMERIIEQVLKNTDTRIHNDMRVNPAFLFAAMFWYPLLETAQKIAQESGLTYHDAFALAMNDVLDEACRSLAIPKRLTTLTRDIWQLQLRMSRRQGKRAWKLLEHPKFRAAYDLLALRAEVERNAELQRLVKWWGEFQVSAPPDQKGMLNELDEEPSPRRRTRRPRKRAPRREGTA

SMILES | comparison among nucleotide analogues [1] | addition of oligo nucleotide analogue to model short RNAs with different 3′ terminal bases [1] | addition to UnaG-120A mRNA by poly(A) polymerase [2] | appearance of the RNA product [2] | addition of nucleotide analogue sequence to the 3′ termini of the model short RNA ([3]; 37° C.) | time within which the reaction was complete ([3]; 37° C., 1 mM) [min] | nucleotides added to the 3′ terminus of model short RNA ([3]; 5 minutes incubation, 37° C., 1 mM) | length of tailed model short RNA product ([3]; 5 minutes incubation, original RNA 136 nt) [nt] | sequential addition of oligo analogue sequence and oligo(A) sequence [4] | addition of oligo sequence to model mRNAs (upward band shift) [5]
Nc1nc(Cl)c2ncn(C3OC(COP(=O)(O)OP(=O)(O)OP(=O)(O)O)C(O)C3O)c2n1 (stereo not shown) [2-Amino-6-Cl-purine-rTP] | produced the best results | successfully added | can be added | upshifted clear main band | successfully added | 10 to 20 | over 60 nts | > 196 | successfully added | added to all model mRNAs
Nc1ncnc2c1ncn2C1OC(COP(=O)(O)OP(=O)(O)OP(=O)(O)O)C(O)C1F (stereo not shown) [2′-F-dATP] | – | successfully added | – | – | successfully added | – | – | – | – | –
Nc1nc(N)c2ncn(C3OC(COP(=O)(O)OP(=O)(O)OP(=O)(O)O)C(O)C3O)c2n1 (stereo not shown) [2-Amino-ATP] | – | successfully added | can be added | distribution of RNA sizes shown as a smear | successfully added | – | – | – | – | –

Source: US20240309447A1, “METHODS AND KITS FOR PREPARING A SAMPLE […] OR MORE RNA MOLECULES FOR SEQUENCING” (The Hong Kong University of Science and Technology, priority 2023, published 2024)
